Results from US7300664B1, “Vaginally administrable progesterone-containing tablets and method for preparing same” (Ferring B.V., priority 1998, dated 2007).
Like-named read-outs stand apart in the source and are kept apart here.

Assays:
[1] = Clinical use: twice-daily vaginal tablets, blood samples on days 14 and 30 (Example 4); assay type: in vivo, women; settings: female, human, serum, other: vaginal, fasting morning sample, read-out: Blood Progesterone levels
Experimental: The pharmacokinetics and clinical use of tablets prepared in accordance with the invention were evaluated as follows: 50 healthy, post-menopausal women with intact uteri, 39 of whom had suffered premature menopause and 11 who were truly postmenopausal, all of whom were undergoing hormone replacement therapy (HRT), submitted blood samples for determination of baseline profiles of hormones (progesterone and other hormones) and other biochemicals (bilirubin, cholesterol, etc.). The blood samples were taken at 8 AM on the first day of the evaluation (day 0) in a fasting state, by intravenous indwelling catheter which was introduced into the cubital vein. Non-estrogen primed postmenopausal women were chosen in order to avoid confusion with endogenous progesterone secretion and estrogen influence on vaginal mucosa absorption (Villanueva et al., Fertil. Steril. 35 (1981), 433-437). To evaluate clinical use of the drug, the women were instructed to insert tablets prepared in accordance with the present invention, containing the same dose as administered on day 0, twice daily starting on day 1, and to […] for 20 minutes after each insertion. On days 14 and 30, blood samples for comparison with the baseline were drawn in the morning while the subjects were in a fasting state. Of the 50 women who participated in the evaluation, 20 were allocated tablets containing 50 mg progesterone, and the remainder of the participants received tablets containing 100 mg progesterone.

[2] = Single-dose pharmacokinetics of progesterone vaginal tablets in post-menopausal women (Example 4, day 0); assay type: in vivo; settings: single vaginal tablet, mean; for Tmax / half-life: female, human, serum; for half-life: read-out: T1/2 (mean elimination half-life) (converted); for Cmax: read-out: Cmax (maximal serum concentration)
Experimental: The pharmacokinetics and clinical use of tablets prepared in accordance with the invention were evaluated as follows: 50 healthy, post-menopausal women with intact uteri, 39 of whom had suffered premature menopause and 11 who were truly postmenopausal, all of whom were undergoing hormone replacement therapy (HRT), submitted blood samples for determination of baseline profiles of hormones (progesterone and other hormones) and other biochemicals (bilirubin, cholesterol, etc.). The blood samples were taken at 8 AM on the first day of the evaluation (day 0) in a fasting state, by intravenous indwelling catheter which was introduced into the cubital vein. Non-estrogen primed postmenopausal women were chosen in order to avoid confusion with endogenous progesterone secretion and estrogen influence on vaginal mucosa absorption (Villanueva et al., Fertil. Steril. 35 (1981), 433-437). The women then self-administered the progesterone vaginal tablet using a plastic applicator and lay down for 20 minutes. Repeat blood samples for progesterone concentration were withdrawn 0.5, 1, 2, 4, 6, 8, 10, 12 and 24 hours after the vaginal insertion. Blood was allowed to clot at room temperature for 1 hour, after which the serum was separated by centrifugation and stored at −20° C. until analysis. Of the 50 women who participated in the evaluation, 20 were allocated tablets containing 50 mg progesterone, and the remainder of the participants received tablets containing 100 mg progesterone. […] The mean […] (Tmax), mean elimination half-life (T1/2), maximal serum concentration (Cmax), and AUC (area under the curve, i.e. total amount of plasma progesterone observed) derived from the blood samples taken on day 0 of the evaluation are summarized in Table II.

[3] = 50 mg progesterone, 20 subjects
[4] = 100 mg progesterone, 30 subjects

concentration at 14 day ([1]; 50 mg twice daily, Day 14, 50 mg tablet twice daily, 20 subjects): 17.5 nM | concentration at 30 day ([1]; 50 mg twice daily, Day 30, 50 mg tablet twice daily, 20 subjects): 17.4 nM | concentration at 14 day ([1]; 100 mg twice daily, Day 14, 100 mg tablet twice daily, 30 subjects): 26.1 nM | concentration at 30 day ([1]; 100 mg twice daily, Day 30, 100 mg tablet twice daily, 30 subjects): 21.4 nM | Tmax [2, 3]: 6.1 h | half-life [2, 3]: 13.2 h | Tmax [2, 4]: 6.4 h | half-life [2, 4]: 13.7 h | AUC (area under the curve) [2, 3]: 154.15 nmol/h/L | Cmax [2, 3]: 20.4 nM | Cmax ([2]; 100 mg progesterone, 30 subjects, P = 0.0004): 31.6 nM | AUC (area under the curve) ([2]; 100 mg progesterone, 30 subjects, P = 0.001): 247.61 nmol/h/L
SMILES: CC(=O)[C@H]1CC[C@H]2[C@@H]3CCC4=CC(=O)CC[C@]4(C)[C@H]3CC[C@]12C [Progesterone, progesterone]
